Some test systems named below: MCF7 breast; HS 578T breast; RXF 393 renal; UO-31 renal; OVCAR-8 ovarian; MDA-MB-435; SK-MEL-5 melanoma; SN12C renal; SW-620 colon; HCT-15 colon.
Common to all, as to test: growth of human tumour cells (NCI), 48 h

“And” between values parts separate entries of the source, which are not always exact repeats. Identical values can stand only once.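 Five compound concentrations were applied to cells in 96-well plates for 48 hours; endpoints were derived by simple linear interpolation of the resulting dose-response curve. Here, GI50 denotes the concentration required for 50% inhibition of growth. At the TGI there is no net growth.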

Drawing on PubChem BioAssay (NCI), this text covers TGI and GI50 for 12 molecules.

In the case of `CC1(C)OC[C@@H](/C=C\CCO[Si](c2ccccc2)(c2ccccc2)C(C)(C)C)N1C(=O)c1ccccc1`, the TGI in the experiment with MCF7 breast was 24.4 µM; in the experiment on HS 578T breast, 55.1 µM; with RXF 393 renal it was 27.9 µM; in the experiment with UO-31 renal it was 36.5 µM; in the experiment with OVCAR-8 ovarian, greater than 100 µM; with MDA-MB-435, greater than 100 µM. Also, the TGI in the experiment on SK-MEL-5 melanoma is 12 µM; in the experiment on SN12C renal, 29.9 µM; in the experiment on SW-620 colon, greater than 100 µM; in the experiment with HCT-15 colon, greater than 100 µM.
With `Oc1ccc2ccccc2c1-c1nnc(CCCCCCCCc2nnc(-c3c(O)ccc4ccccc34)o2)o1`, the TGI in the experiment on MCF7 breast was greater than 37.2 µM; in the experiment on HS 578T breast it was 25 µM and > 100 µM; in the experiment on RXF 393 renal, 7.93 µM and 31.8 µM; with UO-31 renal, 19.2 µM and 15.4 µM; in the experiment on MDA-MB-435, 25 µM and > 100 µM; in the experiment on SK-MEL-5 melanoma, 8.59 µM and 44.2 µM. Also, the TGI with SW-620 colon was 25 µM and > 43.2 µM; with HCT-15 colon, 25 µM and > 100 µM. Further, the GI50 in the experiment on HS 578T breast was 19.6 µM; in the experiment on RXF 393 renal, 1.39 µM; with UO-31 renal it was 0.93 µM; in the experiment on OVCAR-8 ovarian it was 0.317 µM; in the experiment on MDA-MB-435 it was 3.5 µM; in the experiment on SK-MEL-5 melanoma, 3.15 µM. The GI50 with SN12C renal was 0.428 µM; in the experiment with HCT-15 colon it was 0.563 µM.
With `N#Cc1c(=O)c2cccnc2n2c1[nH]c1ccccc12`, the TGI with MCF7 breast is greater than 100 µM; in the experiment with HS 578T breast it was 69.9 µM; in the experiment with RXF 393 renal, greater than 100 µM; in the experiment on UO-31 renal it was greater than 100 µM; in the experiment on OVCAR-8 ovarian it was greater than 100 µM; in the experiment on MDA-MB-435 it was greater than 100 µM. For the same molecule, the TGI with SN12C renal, in the experiment on SW-620 colon and in the experiment on HCT-15 colon was greater than 100 µM in each case.
On to `CCCCCCCCCCCCCCCCP(=O)(O)OP(=O)(O)OCC1OC(n2ccc(N)nc2=O)C(O)C1O` (stereo not drawn), for which the GI50 is > 100 µM and 11.4 µM in the experiment with MCF7 breast; 83.2 µM and 29.2 µM in the experiment on HS 578T breast; 62.6 µM and 19.8 µM in the experiment with RXF 393 renal; > 100 µM and 14.6 µM with MDA-MB-435; > 100 µM and 11.2 µM in the experiment on SK-MEL-5 melanoma; 54.5 µM and 9.05 µM in the experiment with SN12C renal. The GI50 in the experiment on SW-620 colon is > 100 µM and 14.4 µM; in the experiment on HCT-15 colon it was 97.5 µM and 19.3 µM. For the same molecule, the TGI was greater than 100 µM with MCF7 breast; greater than 100 µM with HS 578T breast; > 100 µM and 41.1 µM in the experiment with RXF 393 renal; > 100 µM and 28 µM in the experiment on UO-31 renal; > 100 µM and 51.3 µM in the experiment on OVCAR-8 ovarian; greater than 100 µM in the experiment with MDA-MB-435. The TGI with SK-MEL-5 melanoma is > 100 µM and 34.3 µM; in the experiment on SN12C renal it was greater than 100 µM; with SW-620 colon, > 100 µM and 59 µM; with HCT-15 colon, greater than 100 µM.
In the case of `C=C(CCOC)CCC1CCCCC(=C)C1=O` (stereo not drawn), the TGI with MCF7 breast, with HS 578T breast, in the experiment on RXF 393 renal, with UO-31 renal, in the experiment with OVCAR-8 ovarian and with MDA-MB-435 was greater than 100 µM throughout. Further, the TGI with SK-MEL-5 melanoma, in the experiment on SN12C renal, in the experiment on SW-620 colon and in the experiment with HCT-15 colon was greater than 100 µM throughout.
Regarding `CSc1c(C(C)=O)c(O)n(-c2ccc(Cl)cc2)c(=O)c1C#N`, the TGI in the experiment on MCF7 breast is greater than 100 µM; with HS 578T breast it was greater than 100 µM; in the experiment on RXF 393 renal, greater than 100 µM; with UO-31 renal it was 84.6 µM; in the experiment with OVCAR-8 ovarian it was greater than 100 µM; in the experiment on MDA-MB-435, greater than 100 µM. Further, the TGI is greater than 100 µM with SK-MEL-5 melanoma, greater than 100 µM with SN12C renal, greater than 100 µM in the experiment on SW-620 colon and 99.5 µM in the experiment on HCT-15 colon.
Regarding `CC(=O)N(C(C)=O)n1c(Cc2ccc(Cl)cc2)nn(C(C)=O)c1=O`, the TGI in the experiment with MCF7 breast, with HS 578T breast, in the experiment with RXF 393 renal, in the experiment on UO-31 renal, in the experiment with OVCAR-8 ovarian and in the experiment with MDA-MB-435 was greater than 100 µM each time. Besides, the TGI in the experiment with SK-MEL-5 melanoma, in the experiment with SN12C renal, in the experiment on SW-620 colon and with HCT-15 colon was greater than 100 µM in each case.
For the molecule `C/C(=N\N=C(N)N)c1c(C(=O)OCCCCCCOC(=O)c2nc3sccn3c2/C(C)=N/N=C(N)N)nc2sccn12`, the TGI in the experiment with MCF7 breast, in the experiment on HS 578T breast, in the experiment on RXF 393 renal, with UO-31 renal, in the experiment on OVCAR-8 ovarian and in the experiment on MDA-MB-435 was greater than 100 µM throughout. Besides, the TGI in the experiment on SK-MEL-5 melanoma, in the experiment with SN12C renal, in the experiment on SW-620 colon and in the experiment with HCT-15 colon was greater than 100 µM in each case.
Regarding `CCCCCCCCCCCCC(=O)NCC(=O)NC(Cc1ccccc1)C(=O)Oc1ccc([N+](=O)[O-])cc1` (stereo not drawn), the TGI in the experiment with MCF7 breast, in the experiment on HS 578T breast, with RXF 393 renal, with UO-31 renal, in the experiment with OVCAR-8 ovarian and with MDA-MB-435 was greater than 100 µM throughout. Also, the TGI with SK-MEL-5 melanoma, with SN12C renal, with SW-620 colon and with HCT-15 colon was greater than 100 µM in each case.
Regarding `CCCCn1cc(C(=O)O)c(=O)c2c3sccc3ccc21`, the TGI with MCF7 breast is greater than 100 µM; in the experiment with HS 578T breast, greater than 100 µM; with RXF 393 renal it was greater than 100 µM; with UO-31 renal, 50 µM; in the experiment on OVCAR-8 ovarian it was greater than 100 µM; with MDA-MB-435 it was greater than 100 µM. Further, the TGI with SK-MEL-5 melanoma, in the experiment on SN12C renal, in the experiment on SW-620 colon and in the experiment on HCT-15 colon was greater than 100 µM in each case.
Consider `CCCCC[C@H](O)[C@H](C)C=C1SCCCS1`, for which the TGI with MCF7 breast, with HS 578T breast, in the experiment on RXF 393 renal, with UO-31 renal, in the experiment with OVCAR-8 ovarian and in the experiment on MDA-MB-435 was greater than 100 µM throughout. For the same molecule, the TGI with SK-MEL-5 melanoma, in the experiment on SN12C renal, with SW-620 colon and in the experiment with HCT-15 colon was greater than 100 µM throughout.
For `CN(C)c1ccc(-c2nc(-c3cc4c(ccc5ccccc54)oc3=O)cs2)cc1`, the TGI in the experiment with MCF7 breast, with HS 578T breast, in the experiment with RXF 393 renal, in the experiment on UO-31 renal, in the experiment with OVCAR-8 ovarian and in the experiment on MDA-MB-435 was greater than 100 µM each time. Moreover, the TGI in the experiment with SK-MEL-5 melanoma, in the experiment with SN12C renal, in the experiment with SW-620 colon and in the experiment on HCT-15 colon was greater than 100 µM throughout.
